# Measured values published in patent publication US20140155589A1 (priority 2011, published 2014).
# Where two headings read alike, the source gives them in different places.
# Tested on: Pseudomonas aeruginosa (PA 01 strain)
# Settings: for Amount of pyocyanine produced per viable bacterial count Relative value (%): relative to control without compound; for Viable bacterial count: shake culture 37° C. 48 hours; for viable bacterial count compared with control: summary of Table 12; for amount of pyocyanine produced per viable bacterial count compared with control: summary of Table 13
# [1] = Concentration of compound added 10 mM
# [2] = Concentration of compound added 20 mM
# [3] = Concentration of compound added 25 mM
Compound,Amount of pyocyanine produced per viable bacterial count Relative value (%) [1] [%],Viable bacterial count [1] [mL⁻¹],Amount of pyocyanine produced per viable bacterial count Relative value (%) [2] [%],Viable bacterial count [2] [mL⁻¹],Amount of pyocyanine produced per viable bacterial count Relative value (%) [3] [%],Viable bacterial count [3] [mL⁻¹],viable bacterial count compared with control,amount of pyocyanine produced per viable bacterial count compared with control
O=P(O)(O)OP(=O)(O)OP(=O)(O)O [Triphosphoric acid],40.3,1.5e+09,11.5,1.5e+09,5.4,1.52e+09,almost no difference,significantly lower
C=CC(=O)O [Acrylic acid],250.1,1.09e+09,201.8,9.4e+08,233.1,8.4e+08,almost no difference,larger than that in the control
O=P(O)(O)O [Phosphoric acid],118,1.6e+09,105.8,1.56e+09,107.6,1.49e+09,almost no difference,not so different
